Tested on: ABL1 tyrosine kinase
Assay: ABL1 tyrosine kinase inhibition in K562 cells
Assay type: cell-based, human
Conditions: at a concentration of 30 μM

SMILES	inhibition of ABL1 production [%]
Nc1nc(-c2ccc(Br)cc2)cc(-c2ccccc2O)n1 [1e, 2-(2-Amino-6-(4-bromophenyl)pyrimidin-4-yl)phenol]	80

Tested on: K562 human leukemia cell line
Assay: MTT anti-proliferative activity on K562 cell line
Assay type: cell-based
Conditions: structure-activity discussion

SMILES	anti-tumor activity against K562 cell line (in words)
COc1ccc(-c2cc(-c3ccccc3O)nc(N)n2)cc1 [1d, 2-(2-Amino-6-(4-methoxyphenyl)pyrimidin-4-yl)phenol]	completely lost their anti-tumor activity
Nc1nc(-c2ccc(Cl)cc2)cc(-c2ccccc2O)n1 [1f, 2-(2-Amino-6-(4-chlorophenyl)pyrimidin-4-yl)phenol]	significantly decreased the inhibitory activity
COc1ccc(-c2cc(-c3cccc(OC)c3)nc(N)n2)cc1 [1i, 4-(4-Methoxy-phenyl)-6-(3-methoxy-phenyl)-pyrimidin-2-ylamine]	completely lost their anti-tumor activity
COc1cccc(-c2cc(-c3ccc(Cl)cc3)nc(N)n2)c1 [1k, 4-(4-Chloro-phenyl)-6-(3-methoxy-phenyl)-pyrimidin-2-ylamine]	significantly decreased the inhibitory activity
COc1ccc(-c2cc(-c3ccc(OC)cc3)nc(N)n2)cc1 [1n, 4,6-Bis(4-methoxyphenyl)pyrimidin-2-amine]	completely lost their anti-tumor activity
COc1ccc(-c2cc(-c3ccc(Cl)cc3)nc(N)n2)cc1 [1p, 4-(4-Chlorophenyl)-6-(4-methoxyphenyl)pyrimidin-2-amine]	significantly decreased the inhibitory activity

Reference: publication PMC11808659 (RSC Advances, 2025)
